Test results taken from ChEMBL document CHEMBL2434827, “Selective inhibition of heme oxygenase-2 activity by analogs of 1-(4-chlorobenzyl)-2-(pyrrolidin-1-ylmethyl)-1H-benzimidazole (clemizole): Exploration of the effects of substituents at the N-1 position” (Bioorg Med Chem, 2013).

What was measured:
Rattus norvegicus = organism: Rattus norvegicus; assay: Selectivity index, ratio of IC50 for HO-1 in Sprague-Dawley rat spleen microsomal fractions to IC50 for HO-2 in Sprague-Dawley rat brain microsomal fractions; type: microsomes; conditions: Microsome
Heme oxygenase 2 = target: T1, Heme oxygenase 2 (Rattus norvegicus, UniProt P23711); assay: Inhibition of HO-2 in Sprague-Dawley rat brain microsomal fractions assessed as carbon monoxide formation from methemalbumin after 10 mins by gas chromatography analysis; type: microsomes
T1 sequence (P23711 whole entry): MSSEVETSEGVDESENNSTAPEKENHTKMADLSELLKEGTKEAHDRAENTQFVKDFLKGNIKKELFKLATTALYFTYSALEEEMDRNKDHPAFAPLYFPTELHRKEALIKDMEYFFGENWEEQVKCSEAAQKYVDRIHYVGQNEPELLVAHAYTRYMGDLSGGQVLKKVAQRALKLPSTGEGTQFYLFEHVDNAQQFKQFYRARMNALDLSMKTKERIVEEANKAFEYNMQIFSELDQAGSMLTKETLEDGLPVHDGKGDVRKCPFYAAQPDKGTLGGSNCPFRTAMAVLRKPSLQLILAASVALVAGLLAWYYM

Heme oxygenase 1 = target: T2, Heme oxygenase 1 (Rattus norvegicus, UniProt P06762); assay: Inhibition of HO-1 in Sprague-Dawley rat spleen microsomal fractions assessed as carbon monoxide formation from methemalbumin after 10 mins by gas chromatography analysis; type: microsomes, Microsome
T2 sequence (P06762 whole entry): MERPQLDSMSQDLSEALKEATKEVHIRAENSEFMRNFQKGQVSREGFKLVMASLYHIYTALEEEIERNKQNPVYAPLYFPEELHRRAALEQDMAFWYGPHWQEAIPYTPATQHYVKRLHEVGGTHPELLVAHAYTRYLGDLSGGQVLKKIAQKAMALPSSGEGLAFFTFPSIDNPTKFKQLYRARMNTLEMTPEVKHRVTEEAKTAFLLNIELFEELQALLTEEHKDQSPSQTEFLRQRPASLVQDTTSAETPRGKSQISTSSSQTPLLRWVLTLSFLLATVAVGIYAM

With c1ccc(COc2ccc(Cn3c(CN4CCCC4)nc4ccccc43)cc2)cc1 the Ratio IC50 (Rattus norvegicus) was over 1.5, the IC50 (Heme oxygenase 2) was 63 µM and the IC50 (Heme oxygenase 1) was over 100 µM.
For Cc1ccccc1Cn1c(CN2CCCC2)nc2ccccc21, the Ratio IC50 (Rattus norvegicus) was 42, the IC50 (Heme oxygenase 2) was 1.8 µM and the IC50 (Heme oxygenase 1) was 76 µM.
With Fc1ccc(Cn2c(CN3CCCC3)nc3ccccc32)cc1 the Ratio IC50 (Rattus norvegicus) was over 50, the IC50 (Heme oxygenase 2) was 2 µM and the IC50 (Heme oxygenase 1) was over 100 µM.
With c1ccc(Cn2c(CN3CCCC3)nc3ccccc32)cc1 the Ratio IC50 (Rattus norvegicus) was over 32, the IC50 (Heme oxygenase 2) was 3.1 µM and the IC50 (Heme oxygenase 1) was over 100 µM.
Clc1cccc(Cl)c1Cn1c(CN2CCCC2)nc2ccccc21 gave a Ratio IC50 (Rattus norvegicus) of over 10, an IC50 (Heme oxygenase 2) of 9.2 µM and an IC50 (Heme oxygenase 1) of over 100 µM.
Work on c1ccc(OCCn2c(CN3CCCC3)nc3ccccc32)cc1 yielded an IC50 (Heme oxygenase 2) of over 100 µM and an IC50 (Heme oxygenase 1) of over 100 µM.
FC(F)(F)c1ccc(Cn2c(CN3CCCC3)nc3ccccc32)cc1 was tested, and the Ratio IC50 (Rattus norvegicus) was over 6.4, the IC50 (Heme oxygenase 2) was 15.6 µM and the IC50 (Heme oxygenase 1) was over 100 µM.
Work on Clc1cc(Cl)cc(Cn2c(CN3CCCC3)nc3ccccc32)c1 yielded a Ratio IC50 (Rattus norvegicus) of over 47, an IC50 (Heme oxygenase 2) of 2.1 µM and an IC50 (Heme oxygenase 1) of over 100 µM.
For Cc1ccc(Cn2c(CN3CCCC3)nc3ccccc32)cc1, the Ratio IC50 (Rattus norvegicus) was over 20, the IC50 (Heme oxygenase 2) was 5 µM and the IC50 (Heme oxygenase 1) was over 100 µM.
Work on CCCn1c(CN2CCCC2)nc2ccccc21 yielded a Ratio IC50 (Rattus norvegicus) of over 3, an IC50 (Heme oxygenase 2) of 27 µM and an IC50 (Heme oxygenase 1) of over 100 µM.
With c1ccc2[nH]c(CN3CCCC3)nc2c1 the IC50 (Heme oxygenase 2) was over 100 µM and the IC50 (Heme oxygenase 1) was over 100 µM.
O=[N+]([O-])c1cccc(Cn2c(CN3CCCC3)nc3ccccc32)c1 gave a Ratio IC50 (Rattus norvegicus) of over 76, an IC50 (Heme oxygenase 2) of 1.3 µM and an IC50 (Heme oxygenase 1) of over 100 µM.
With Clc1ccc(Cn2c(CN3CCCC3)nc3ccccc32)c(Cl)c1 the Ratio IC50 (Rattus norvegicus) was 10, the IC50 (Heme oxygenase 2) was 6.1 µM and the IC50 (Heme oxygenase 1) was 62 µM.
Molecule N#Cc1cccc(Cn2c(CN3CCCC3)nc3ccccc32)c1 has a Ratio IC50 (Rattus norvegicus) of over 6, an IC50 (Heme oxygenase 2) of 15.8 µM and an IC50 (Heme oxygenase 1) of over 100 µM.
With c1ccc(C(c2ccccc2)n2c(CN3CCCC3)nc3ccccc32)cc1 the Ratio IC50 (Rattus norvegicus) was over 24, the IC50 (Heme oxygenase 2) was 4.1 µM and the IC50 (Heme oxygenase 1) was over 100 µM.
For N#Cc1ccccc1Cn1c(CN2CCCC2)nc2ccccc21, the Ratio IC50 (Rattus norvegicus) was over 25, the IC50 (Heme oxygenase 2) was 4 µM and the IC50 (Heme oxygenase 1) was over 100 µM.
For c1ccc(CCn2c(CN3CCCC3)nc3ccccc32)cc1, the Ratio IC50 (Rattus norvegicus) was over 37, the IC50 (Heme oxygenase 2) was 2.7 µM and the IC50 (Heme oxygenase 1) was over 100 µM.
With c1ccc2cc(Cn3c(CN4CCCC4)nc4ccccc43)ccc2c1 the Ratio IC50 (Rattus norvegicus) was over 20, the IC50 (Heme oxygenase 2) was 5 µM and the IC50 (Heme oxygenase 1) was over 100 µM.
Molecule Brc1ccc(Cn2c(CN3CCCC3)nc3ccccc32)cc1 has a Ratio IC50 (Rattus norvegicus) of over 38, an IC50 (Heme oxygenase 2) of 2.6 µM and an IC50 (Heme oxygenase 1) of over 100 µM.
In the case of N#Cc1ccc(Cn2c(CN3CCCC3)nc3ccccc32)cc1, the Ratio IC50 (Rattus norvegicus) is reported as over 9, the IC50 (Heme oxygenase 2) is reported as 11 µM and the IC50 (Heme oxygenase 1) is reported as over 100 µM.
Work on Brc1ccccc1Cn1c(CN2CCCC2)nc2ccccc21 yielded a Ratio IC50 (Rattus norvegicus) of 26, an IC50 (Heme oxygenase 2) of 1.6 µM and an IC50 (Heme oxygenase 1) of 42 µM.
Molecule O=[N+]([O-])c1ccc(Cn2c(CN3CCCC3)nc3ccccc32)cc1 has a Ratio IC50 (Rattus norvegicus) of over 3, an IC50 (Heme oxygenase 2) of 27 µM and an IC50 (Heme oxygenase 1) of over 100 µM.
With Clc1ccc(Cn2c(CN3CCCC3)nc3ccccc32)cc1Cl the Ratio IC50 (Rattus norvegicus) was over 5, the IC50 (Heme oxygenase 2) was 17 µM and the IC50 (Heme oxygenase 1) was over 100 µM.
For Clc1cccc(Cn2c(CN3CCCC3)nc3ccccc32)c1, the Ratio IC50 (Rattus norvegicus) was over 60, the IC50 (Heme oxygenase 2) was 1.65 µM and the IC50 (Heme oxygenase 1) was over 100 µM.
Molecule Ic1ccc(Cn2c(CN3CCCC3)nc3ccccc32)cc1 has a Ratio IC50 (Rattus norvegicus) of over 13, an IC50 (Heme oxygenase 2) of 7.6 µM and an IC50 (Heme oxygenase 1) of over 100 µM.
Work on Clc1cccc(Cn2c(CN3CCCC3)nc3ccccc32)c1Cl yielded a Ratio IC50 (Rattus norvegicus) of over 6, an IC50 (Heme oxygenase 2) of 14.7 µM and an IC50 (Heme oxygenase 1) of over 100 µM.
In the case of Brc1cccc(Cn2c(CN3CCCC3)nc3ccccc32)c1, the Ratio IC50 (Rattus norvegicus) is reported as over 66, the IC50 (Heme oxygenase 2) is reported as 1.5 µM and the IC50 (Heme oxygenase 1) is reported as over 100 µM.
O=[N+]([O-])c1ccccc1Cn1c(CN2CCCC2)nc2ccccc21 was tested, and the Ratio IC50 (Rattus norvegicus) was over 28, the IC50 (Heme oxygenase 2) was 3.5 µM and the IC50 (Heme oxygenase 1) was over 100 µM.
Clc1ccc(Cl)c(Cn2c(CN3CCCC3)nc3ccccc32)c1 gave a Ratio IC50 (Rattus norvegicus) of 24, an IC50 (Heme oxygenase 2) of 4 µM and an IC50 (Heme oxygenase 1) of 96 µM.
c1ccc2c(c1)nc(CN1CCCC1)n2CC1CCCCC1 gave a Ratio IC50 (Rattus norvegicus) of over 16, an IC50 (Heme oxygenase 2) of 6 µM and an IC50 (Heme oxygenase 1) of over 100 µM.
Clc1ccc(Cn2c(CN3CCCC3)nc3ccccc32)cc1 showed a Ratio IC50 (Rattus norvegicus) of over 29, an IC50 (Heme oxygenase 2) of 3.4 µM and an IC50 (Heme oxygenase 1) of over 100 µM.
Cc1cccc(Cn2c(CN3CCCC3)nc3ccccc32)c1 gave a Ratio IC50 (Rattus norvegicus) of over 20, an IC50 (Heme oxygenase 2) of 5 µM and an IC50 (Heme oxygenase 1) of over 100 µM.
Molecule Clc1ccccc1Cn1c(CN2CCCC2)nc2ccccc21 has a Ratio IC50 (Rattus norvegicus) of over 20, an IC50 (Heme oxygenase 2) of 4.8 µM and an IC50 (Heme oxygenase 1) of over 100 µM.
CC(C)c1ccc(Cn2c(CN3CCCC3)nc3ccccc32)cc1 showed a Ratio IC50 (Rattus norvegicus) of over 1.8, an IC50 (Heme oxygenase 2) of 55 µM and an IC50 (Heme oxygenase 1) of over 100 µM.
Work on CSc1ccc(Cn2c(CN3CCCC3)nc3ccccc32)cc1 yielded a Ratio IC50 (Rattus norvegicus) of over 6, an IC50 (Heme oxygenase 2) of 15 µM and an IC50 (Heme oxygenase 1) of over 100 µM.
COc1ccc(Cn2c(CN3CCCC3)nc3ccccc32)cc1 was tested, and the Ratio IC50 (Rattus norvegicus) was over 5, the IC50 (Heme oxygenase 2) was 18 µM and the IC50 (Heme oxygenase 1) was over 100 µM.
